Assay results published in publication PMC9884426, “A phase 1 clinical trial of the repurposable acetyllysine mimetic, n-methyl-2-pyrrolidone (NMP), in relapsed or refractory multiple myeloma” (Clinical Epigenetics, 2023).
Read-outs that look alike come from different tables or passages of the source.

Assay: Plasma pharmacokinetics of oral NMP by LCMSMS
Assay type: in vivo, human
Conditions: for AUC / Cmax / half-life / Tmax: human, po
Method: Blood samples were taken from patients before NMP and at one, two, four, eight and 24 h post dose. Plasma samples (20 μl) were prepared by adding five volumes of methanol containing deuterated internal standard. The samples were vortexed then centrifuged, and the supernatant was transferred to a vial and injected onto the LCMSMS. The LCMSMS system consisted of a Shimadzu UHPLC with a SCIEX 6500QTrap, a KinetexC18 (3 × 50 mm, 2.6 μm) column and using a gradient of 0.1% formic acid and acetonitrile. The initial conditions were 0.5 ml/min and 2% acetonitrile; this was held for 1 min then increased to 20% acetonitrile at 2 min then increased to 70% acetonitrile and held for 0.5 min. Equilibration time was 0.5 min. MRMs for NMP were 100 → 58, 100 → 69, 100 → 41 and for the internal standard d9NMP 109 → 62, […]. PK analysis was performed using Pkanalix (version 2021R1. Antony, France: Lixoft SAS, 2021).

[1] = all dose levels 25-800 mg oral, N = 28 profiles, plasma

CN1CCCC1=O [NMP, N-methyl-2-pyrrolidone]
Maximum plasma concentration (Cmax), highest achieved (800 mg dose, oral, one patient): 16700 ng/mL | CL/F, Overall Average [1]: 19.25 L⋅h⁻¹ | Half-life, Overall Average [1]: ~ 1.5 h | V/F, Overall Average [1]: 39.49 L | Tmax, Overall Average (all dose levels 25-800 mg oral, N = 29 profiles, plasma): 33 min | single NMP dose predicted to be required to attain BET-inhibitory peak plasma concentrations (e.g. > 1 mM peak plasma, based on NMP's PK): more than 4.5 g | AUC (plasma, 25 mg, oral 25 mg, patient RMH-01 occasion 6, plasma, read-out: AUC): 1500 ng·h/mL | Cmax (plasma, 25 mg, oral 25 mg, patient RMH-01 occasion 6, plasma, read-out: Cmax): 930 ng/mL | half-life (plasma, 25 mg, oral 25 mg, patient RMH-01 occasion 6, plasma, read-out: Half-life (converted)): 52.2 min | Tmax (plasma, 25 mg, oral 25 mg, patient RMH-01 occasion 6, plasma, read-out: Tmax): 30 min | AUC (plasma, 50 mg, oral 50 mg, average of N = 5 profiles, plasma, read-out: AUC, Average): 2170 ng·h/mL | Cmax (plasma, 50 mg, oral 50 mg, average of N = 5 profiles, plasma, read-out: Cmax, Average): 1260 ng/mL | half-life (plasma, 50 mg, oral 50 mg, average of N = 5 profiles, plasma, read-out: Half-life, Average (converted)): 64.8 min | Tmax (plasma, 50 mg, oral 50 mg, average of N = 5 profiles, plasma, read-out: Tmax, Average): 30 min | AUC (plasma, 50 mg, oral 50 mg, individual profiles, patient RMH-01 occasions 1-5, plasma, read-out: AUC): 2830 ng·h/mL | Cmax (plasma, 50 mg, oral 50 mg, individual profiles, patient RMH-01 occasions 1-5, plasma, read-out: Cmax): 1720 ng/mL | half-life (plasma, 50 mg, oral 50 mg, individual profiles, patient RMH-01 occasions 1-5, plasma, read-out: Half-life (converted)): 72.6 min | Tmax (plasma, 50 mg, oral 50 mg, individual profiles, patient RMH-01 occasions 1-5, plasma, read-out: Tmax): 30 min | AUC (plasma, 100 mg, oral 100 mg, average of N = 5 profiles, plasma, read-out: AUC, Average): 7130 ng·h/mL | Cmax (plasma, 100 mg, oral 100 mg, average of N = 5 profiles, plasma, read-out: Cmax, Average): 2570 ng/mL | half-life (plasma, 100 mg, oral 100 mg, average of N = 5 profiles, plasma, read-out: Half-life, Average (converted)): 110 min | Tmax (plasma, 100 mg, oral 100 mg, average of N = 5 profiles, plasma, read-out: Tmax, Average): 30 min | AUC (plasma, 100 mg, oral 100 mg, individual profiles, patient RMH-02 occasions 1-5, plasma, read-out: AUC): 6970 ng·h/mL | Cmax (plasma, 100 mg, oral 100 mg, individual profiles, patient RMH-02 occasions 1-5, plasma, read-out: Cmax): 2730 ng/mL | half-life (plasma, 100 mg, oral 100 mg, individual profiles, patient RMH-02 occasions 1-5, plasma, read-out: Half-life (converted)): 101 min | Tmax (plasma, 100 mg, oral 100 mg, individual profiles, patient RMH-02 occasions 1-5, plasma, read-out: Tmax): 30 min | half-life (plasma, 200 mg, oral 200 mg, average of N = 8 profiles, plasma, read-out: Half-life, Average (converted)): 88.2 min | AUC (plasma, 200 mg, oral 200 mg, average of N = 9 profiles, plasma, read-out: AUC, Average): 9510 ng·h/mL | Cmax (plasma, 200 mg, oral 200 mg, average of N = 9 profiles, plasma, read-out: Cmax, Average): 4050 ng/mL | Tmax (plasma, 200 mg, oral 200 mg, average of N = 9 profiles, plasma, read-out: Tmax, Average): 33.6 min | half-life (plasma, 200 mg, oral 200 mg, individual profiles (PMC-03, MON-04, MON-06, MON-07, PMC-08), plasma, read-out: Half-life (converted)): 84 min | Tmax (plasma, 200 mg, oral 200 mg, individual profiles (PMC-03, MON-04, PMC-05, MON-06, MON-07, PMC-08), plasma, read-out: Tmax): 30 min | AUC (plasma, 300 mg, oral 300 mg, average of N = 3 profiles, plasma, read-out: AUC, Average): 22200 ng·h/mL | Cmax (plasma, 300 mg, oral 300 mg, average of N = 3 profiles, plasma, read-out: Cmax, Average): 8060 ng/mL | half-life (plasma, 300 mg, oral 300 mg, average of N = 3 profiles, plasma, read-out: Half-life, Average (converted)): 96 min | Tmax (plasma, 300 mg, oral 300 mg, average of N = 3 profiles, plasma, read-out: Tmax, Average): 40.2 min | Cmax (plasma, 300 mg, oral 300 mg, individual profiles (PMC-09, MON-10, MON-11), plasma, read-out: Cmax): 10500 ng/mL | half-life (plasma, 300 mg, oral 300 mg, individual profiles (PMC-09, MON-10, MON-11), plasma, read-out: Half-life (converted)): 99.6 min | Tmax (plasma, 300 mg, oral 300 mg, individual profiles (PMC-09, MON-10, MON-11), plasma, read-out: Tmax): 30 min | AUC (plasma, 400 mg, oral 400 mg, average of N = 2 profiles, plasma, read-out: AUC, Average): 22200 ng·h/mL | Cmax (plasma, 400 mg, oral 400 mg, average of N = 2 profiles, plasma, read-out: Cmax, Average): 8310 ng/mL | half-life (plasma, 400 mg, oral 400 mg, average of N = 2 profiles, plasma, read-out: Half-life, Average (converted)): 94.2 min | Tmax (plasma, 400 mg, oral 400 mg, average of N = 2 profiles, plasma, read-out: Tmax, Average): 30 min | AUC (plasma, 400 mg, oral 400 mg, individual profiles (MON-11 occasion 2, MON-12), plasma, read-out: AUC): 28500 ng·h/mL | Cmax (plasma, 400 mg, oral 400 mg, individual profiles (MON-11 occasion 2, MON-12), plasma, read-out: Cmax): 8990 ng/mL | half-life (plasma, 400 mg, oral 400 mg, individual profiles (MON-11 occasion 2, MON-12), plasma, read-out: Half-life (converted)): 107 min | Tmax (plasma, 400 mg, oral 400 mg, individual profiles (MON-11 occasion 2, MON-12), plasma, read-out: Tmax): 30 min | AUC (plasma, 500 mg, oral 500 mg, patient MON-11 occasion 3, plasma, read-out: AUC): 40600 ng·h/mL | Cmax (plasma, 500 mg, oral 500 mg, patient MON-11 occasion 3, plasma, read-out: Cmax): 12700 ng/mL | half-life (plasma, 500 mg, oral 500 mg, patient MON-11 occasion 3, plasma, read-out: Half-life (converted)): 119 min | Tmax (plasma, 500 mg, oral 500 mg, patient MON-11 occasion 3, plasma, read-out: Tmax): 30 min | AUC (plasma, 600 mg, oral 600 mg, patient MON-11 occasion 4, plasma, read-out: AUC): 56700 ng·h/mL | Cmax (plasma, 600 mg, oral 600 mg, patient MON-11 occasion 4, plasma, read-out: Cmax): 14400 ng/mL | half-life (plasma, 600 mg, oral 600 mg, patient MON-11 occasion 4, plasma, read-out: Half-life (converted)): 130 min | Tmax (plasma, 600 mg, oral 600 mg, patient MON-11 occasion 4, plasma, read-out: Tmax): 30 min | AUC (plasma, 700 mg, oral 700 mg, patient MON-11 occasion 5, plasma, read-out: AUC): 57600 ng·h/mL
